Assay results published in patent US20250312356A1, “TREATMENT OF DYSMENORRHEA” (priority 2024, published 2025).
Like-named read-outs stand apart in the source and are kept apart here.

How the values were obtained:
[1] = system: human volunteers of both sexes; assay: reflex activity and physiologic parameters after intranasal administration in volunteers; type: in vivo; details: 1.6 μg intranasal
Description: (§1) The half effective dose of this effect was 0.087 μg.
(§2) 16α,17α-Epoxyestr-4-en-10β-ol-3-one decreased parasympathetic system tone resulting in increased sympathetic activity and stimulation of β2 adrenergic receptors in the bronchiole smooth muscle that induced bronchodilation; • (b) increased skin conductance amplitude is the result of increased skin secretions, which are produced by preponderance of the sympathetic nervous system tone (or decreased parasympathetic tone); • (c) decreased body temperature is explained by increased activity of the posterior (adrenergic) hypothalamus and decreased parasympathetic tone (anterior hypothalamus).

[2] = system: females with DSM-IV-defined PMDD; assay: Phase 2a study, daily symptom report pain cluster, cramps; type: in vivo, human
Text: During a 3- to 5-week screening period, patients who presented to the clinic for bothersome PMDD symptoms (defined as “affected functioning”) were recruited. The Premenstrual Tension Syndrome scale was used for screening. After study eligibility criteria and PMDD symptom presence were confirmed at Visit 1, patients received single-blind placebo; those with no acute improvement were eligible for randomization study. Randomized patients presented for Visit 2 when PMDD symptoms were bothersome during the second cycle after entry. PH80 (0.9 μg) or placebo was administered intranasally; PMDD symptoms were evaluated 30 and 60 minutes later. Patients were then supplied with their assigned double-blind treatment for intranasal self-administration up to 4 times a day (PH80 0.9 μg/dose or matching placebo) for up to 6 consecutive days before the estimated menses onset in that cycle. On the first day of menses in the second cycle, a follow-up visit (Visit 3) occurred. 82 females were screened; 61 met eligibility criteria and were randomized to receive PH80 (n=33) or placebo (n=28). […] A total of 49 patients provided at least 1 post-treatment assessment and were included in the pain efficacy analysis.
Pain efficacy analysis for cramping was rated daily by the patient on a 5-point scale ranging from 0 (no symptoms at all) up to 4 (very severe). The overall pain cluster score and individual symptom ratings were compared post-hoc using two-sided T-tests, without adjustments for multiplicity or within-patient variance; means for each group were plotted for each reported day, and no imputation was made for missing data. Results are summarized in Table 2 and depicted in FIG. 3.

[3] = system: women of reproductive age; assay: clinical study of changes in physiological parameters; type: in vivo, human; details: 0.5 μg nasal spray vs vehicle, 14 women
estrogen receptors = assay: in vitro receptor binding study
[4] = system: rats, mice, rabbits and dogs; assay: acute and multidose (28 day) toxicity studies; type: in vivo
[5] = system: women of reproductive age; assay: clinical study of core body temperature and tone of the sympathoadrenergic system; type: in vivo, human; details: 1.6 μg nasal spray
Description: It also changed the tone of the sympathoadrenergic system (as assessed by measuring physiologic sinus arrhythmia) within 5 minutes of administration, and the effect persisted for 15 to 20 minutes.

[6] = system: nasal chemosensory mucosa; assay: electrogram recorded from the surface of the nasal chemosensory mucosa; type: in vivo, human; details: intranasal
Description: as §1

bone marrow = assay: in vivo bone marrow micronucleus test
menopausal women = assay: hot flashes after intranasal administration; type: in vivo, human
Text: as §2

[7] = system: GABAA receptors, opioid receptors, or dopamine receptors; assay: in vitro receptor binding study
[8] = system: isolated human nasal chemosensory neurons; assay: electrophysiological studies in isolated nasal chemosensory neurons; type: cell-based
[9] = system: neurotransmitter receptors, re-uptake sites, or steroid receptors; assay: in vitro receptor binding study
[10] = system: estrogen, androgen, progestin and glucocorticoid receptors; assay: in vitro agonist or antagonist activity on steroid hormone receptors; type: biochemical
[11] = system: women diagnosed with PMDD
[12] = Ames reverse mutation assay
pregnant rabbits = assay: reproductive toxicity studies; type: in vivo; details: intravenous doses up to 2.5 mg/kg/day during organogenesis
[13] = in vivo

C[C@]12CCC3C(CCC4=CC(=O)CC[C@]43O)C1C[C@H]1O[C@H]12 (stereo partly drawn) [16α,17α-epoxyestr-4-en-10β-ol-3-one]
body core temperature (external ear canal) [1]: decreased body core temperature
cardiac rate [1]: no significant change
depth of the inspiratory cycle of respiration [1]: significantly increased amplitude
latency of modulation of reflex activity after electrogram [1]: 5 to 10 s
respiration rate [1]: decreased respiration rate within physiologic range
skeletal muscle tone (electromyogram, chin muscles) [1]: decreased skeletal muscle tone (relaxation)
skin conductance (electrodermal activity) [1]: increased amplitude
cramps score, mean ([2]; Day 1, 0.9 μg/dose up to 4 times a day, 5-point scale 0 to 4): 1.26
cramps score, mean ([2]; Day 2): 1.00
cramps score, mean ([2]; Day 3): 0.59
cramps score, mean ([2]; Day 4): 0.52
cramps score, mean ([2]; Day 5): 0.42
cramps score, mean ([2]; Day 6, n=19, P=0.01 vs placebo): 0.21
cardiac frequency [3]: not statistically significant increase
core body temperature [3]: statistically significant decreases
galvanic skin reflex [3]: statistically significant decreases
respiratory frequency [3]: statistically significant decreases
skeletal muscle tone [3]: statistically significant decreases
binding to estrogen receptors (estrogen receptors): does not bind
deaths, adverse clinical signs, effects on laboratory or pathology parameters ([4]; single and repeated intranasal and intravenous doses): no deaths or adverse clinical signs or effects on laboratory or pathology parameters observed
tolerability ([4]; single and repeated intranasal doses (up to 100 μg/rat, 400 μg/rabbit, 600 μg/dog) and intravenous doses up to 2.5 mg/kg): well tolerated in all species tested
decrease in core body temperature [5]: 1±0.23 °C
latency of decrease in core body temperature [5]: 0.5 to 4 min
persistence of decrease in core body temperature [5]: 9 ± 2.5 min
persistence of effect on tone of the sympathoadrenergic system [5]: 15 to 20 min
time to change of tone of the sympathoadrenergic system (physiologic sinus arrhythmia) [5]: ≤ 5 minutes
half effective dose of electrogram activation [6]: 0.087 µg
activation of the electrogram ([6]; microgram quantities): concentration dependent activation
mutagenic or clastogenic potential (bone marrow): no evidence of mutagenic or clastogenic potential
hot flashes (menopausal women): decreased number, severity and bother of hot flashes
binding to GABAA receptors, opioid receptors, or dopamine receptors [7]: does not bind
concentration giving maximal response (amplitude) ([8]; concentration-dependent amplitude): 10^−7 to 10^−6 M
inward currents ([8]; isolated human nasal chemosensory neurons): induced inward currents
electrotonic depolarization of the nasal septal chemosensory mucosa ([8]; nasal septal chemosensory mucosa): electrotonic depolarization of the nasal septal chemosensory mucosa
binding to neurotransmitter receptors, re-uptake sites, or steroid receptors [9]: no binding
agonist or antagonist activity on estrogen, androgen, progestin and glucocorticoid receptors [10]: no agonist or antagonist activity
cortical behavioral symptoms (headache, tension) ([11]; 0.9 μg intranasal aerosol): significant improvements
hypothalamic behavioral symptoms (fatigue, anger, craving for foods) ([11]; 0.9 μg intranasal aerosol): significant improvements
limbic system behavioral symptoms (mood swings, depression, lack of interest) ([11]; 0.9 μg intranasal aerosol): significant improvements
mean cramping score ([11]; Day 1, 29 women, scale 0 to 4): 1.19
mean headache score ([11]; Day 1, scale 0 to 4): 1.14
difference in mean cramping scores vs placebo ([11]; Day 4, p<0.05, one-tail test): significant
difference in mean headache scores vs placebo ([11]; Day 5, p<0.05, one-tail test): significant
share of group reporting cramping symptoms ([11]; Day 6): 17%
mean cramping score ([11]; Day 6, scale 0 to 4): 0.24
mean headache score ([11]; Day 6, scale 0 to 4): 0.28
persistence of improvements ([11]; single dose intranasal): approximately 5 hours
time to appearance of improvements ([11]; single dose intranasal): ≤ 30 min
serious adverse events ([11]; up to 4 times daily): No serious adverse events were reported
side effects ([11]; up to 4 times daily): minimal and similar to administration of placebo
mutagenic or clastogenic potential [12]: no evidence of mutagenic or clastogenic potential
effects on maternal or litter parameters (pregnant rabbits): no adverse effects on maternal or litter parameters
systemic exposure [13]: lack of systemic exposure
